Active and inactive are the calls of the source.
Columns and labels:
[1] = control 3'UTR Renilla luciferase suppression, dose response, counter-screen for Shn3 inhibitor project, cell-based, Clone20-Shn3RL, cherry-picked (AID 624133); type: functional
[2] = reduction of Shn3 3'UTR firefly luciferase signal, dose response, Schnurri-3 inhibitor project, cell-based, Clone20 osteoblasts, cherry-pick, set 2 (AID 720490); type: functional;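 also: actives lower the luminescence signal as inhibitors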
[3] = Shn3 3'UTR reporter inhibitors, dose response, cell-based, Clone20 osteoblasts, firefly luciferase, cherry-picked (AID 624132); type: functional;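 also: firefly luciferase luminescence from reporter carrying the Shn3 3'UTR in osteoblasts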
[4] = Luminescence Cell-Based Dose Confirmation to Identify Activators of 5'UTR Stem-Loop Driven Alpha-Synuclein mRNA Translation in H4 Neuroglioblastoma Cells. [Related pubchem assays: 1829 (Project Summary), 1814 (Primary HTS)]; type: functional
[5] = Luminescence Cell-Based Dose Response HTS to Identify Activators of Luciferase Translation or Activity in H4 […] Cells. [Related pubchem assays: 1829 (Project Summary), 1814 (Primary HTS)]; type: functional
[6] = Luminescence Cell-Based Dose Response to Identify Activators of Luciferase Translation or Activity in H4-C Neuroglioblastoma Cells. [Related pubchem assays: 1829 (Project Summary), 1814 (Primary HTS)]; type: functional
[7] = Luminescence Cell-Based Dose Response to Identify Activators of 5'UTR Stem-Loop Driven Prion Protein mRNA Translation in H4-C Neuroglioblastoma Cells. [Related pubchem assays: 1829 (Project Summary), 1814 (Primary HTS)]; type: functional
[8] = cells
[9] = target: T1, Oxysterols receptor LXR-beta (Homo sapiens, UniProt P55055); type: functional, cell-based;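 also: Cell-based luminescence dose-response assay of agonist activity at LXR, run as a confirmatory counterscreen to a daf-12 agonist screen; agonist potency from rising luciferase signal of a Gal4-LXR reporter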
T1 sequence (P55055 whole entry): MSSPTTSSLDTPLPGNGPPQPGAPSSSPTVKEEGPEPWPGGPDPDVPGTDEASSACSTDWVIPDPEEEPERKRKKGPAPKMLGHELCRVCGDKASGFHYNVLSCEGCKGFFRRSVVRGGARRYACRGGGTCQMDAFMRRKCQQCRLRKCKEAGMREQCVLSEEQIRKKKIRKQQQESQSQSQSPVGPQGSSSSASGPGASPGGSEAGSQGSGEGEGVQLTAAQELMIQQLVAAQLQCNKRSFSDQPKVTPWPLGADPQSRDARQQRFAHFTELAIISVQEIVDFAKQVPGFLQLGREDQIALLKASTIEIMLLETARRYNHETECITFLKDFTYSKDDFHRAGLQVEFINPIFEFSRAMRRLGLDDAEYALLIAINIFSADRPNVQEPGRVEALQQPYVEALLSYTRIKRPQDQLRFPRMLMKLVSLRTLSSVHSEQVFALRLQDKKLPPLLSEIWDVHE

[10] = target: T2, Carboxy-terminal domain RNA polymerase II polypeptide A small phosphatase 1 (Homo sapiens, UniProt Q9GZU7); experiment: inhibitors of CTDSP1, concentration-response testing, biochemical assay, absorbance-based, actives from ultra-high-throughput screening (AID 540297); type: functional
T2 sequence (Q9GZU7 whole entry): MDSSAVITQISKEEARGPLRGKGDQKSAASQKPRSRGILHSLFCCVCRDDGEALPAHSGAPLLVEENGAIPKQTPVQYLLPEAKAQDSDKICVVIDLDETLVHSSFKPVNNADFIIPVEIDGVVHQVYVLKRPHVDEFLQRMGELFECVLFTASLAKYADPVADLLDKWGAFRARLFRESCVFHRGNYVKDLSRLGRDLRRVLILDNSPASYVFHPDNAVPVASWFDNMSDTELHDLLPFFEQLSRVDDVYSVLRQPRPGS

[11] = target: Bifunctional protein GlmU (Mycobacterium tuberculosis, UniProt P9WMN3); experiment: Inhibitors of Mycobacterial Glucosamine-1-phosphate acetyl transferase (GlmU). Secondary screen.; parameters: species or system Mycobacterium tuberculosis H37Rv
[12] = target: T3, Caspase-6 (Homo sapiens, UniProt P55212); experiment: human caspase-6 inhibitors, dose response, biochemical, VEID-R110 fluorescence, cherry-pick (AID 720632)
T3 sequence (P55212 whole entry): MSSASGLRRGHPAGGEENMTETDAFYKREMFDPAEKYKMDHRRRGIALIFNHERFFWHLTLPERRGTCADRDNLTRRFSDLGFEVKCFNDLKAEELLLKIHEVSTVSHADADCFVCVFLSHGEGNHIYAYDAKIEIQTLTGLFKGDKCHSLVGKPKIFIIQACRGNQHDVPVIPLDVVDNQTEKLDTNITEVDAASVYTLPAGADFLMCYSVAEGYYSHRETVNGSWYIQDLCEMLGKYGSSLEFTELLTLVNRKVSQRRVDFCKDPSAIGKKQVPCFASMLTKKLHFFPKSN

[13] = target: Mitogen-activated protein kinase 10 (Homo sapiens, UniProt P53779); experiment: Dose response biochemical screening assay for inhibitors of c-Jun N-Terminal Kinase 3 (JNK3). [Related pubchem assays: 746 ]
[14] = target: T1, Oxysterols receptor LXR-beta; experiment: LXR agonists, Gal4 luciferase reporter, dose response, counter-screen for ssDAF-12 agonist project, cell-based, luminescence, HEK293, S. stercoralis campaign (AID 720737); type: functional; settings: read-out: IC50 (the source's name)
[15] = Luminescence-based cell-based high throughput dose response assay to identify activators of the DAF-12 from the parasite S. stercoralis (ssDAF-12).; type: functional
[16] = cytotoxicity toward NIH3T3 fibroblasts, dose response, counter-screen, cell-based, ATP luminescence, mouse fibroblasts (AID 2010); type: functional;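 also: cells exposed to compound for about 90 hours before reading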
[17] = inhibitors of intracellular T. cruzi replication, confirmation, NIH3T3 host cells, beta-gal luminescence (AID 2044); type: functional, cell-based;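 also: intracellular parasites grown in NIH/3T3 mouse fibroblasts as host cells; luminescent beta-galactosidase reporter signal from transgenic T. cruzi replicating inside host cells; inhibitors lower the luminescence signal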
[18] = cells; remark: listed apart in the source
[19] = HepG2 cell cytotoxicity, dose response, cytotoxicity control for Shn3 inhibitor project, CellTiter-Glo, cherry-picked (AID 624134); type: functional, cell-based
[20] = system: HEK293; experiment: inhibitors of LMP1-driven NF-kB reporter, dose response, cell-based, HEK293, luciferase, cherry-pick (AID 588343); type: functional; settings: Homo sapiens
[21] = cells; settings: HEK293

Chain of Bifunctional protein GlmU (P9WMN3 whole entry): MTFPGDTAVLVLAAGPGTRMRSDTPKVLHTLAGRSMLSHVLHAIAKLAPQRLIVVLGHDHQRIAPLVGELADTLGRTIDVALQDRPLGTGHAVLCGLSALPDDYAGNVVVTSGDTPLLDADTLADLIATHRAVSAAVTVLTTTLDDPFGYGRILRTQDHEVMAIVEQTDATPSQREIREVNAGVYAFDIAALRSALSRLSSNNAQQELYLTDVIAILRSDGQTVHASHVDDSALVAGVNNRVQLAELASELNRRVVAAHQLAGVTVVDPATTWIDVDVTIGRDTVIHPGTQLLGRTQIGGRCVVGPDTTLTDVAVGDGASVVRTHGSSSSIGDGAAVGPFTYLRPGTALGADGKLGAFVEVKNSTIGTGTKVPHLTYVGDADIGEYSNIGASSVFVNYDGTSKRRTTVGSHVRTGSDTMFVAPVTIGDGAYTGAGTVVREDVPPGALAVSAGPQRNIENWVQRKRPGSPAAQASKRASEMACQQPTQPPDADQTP
Chain of Mitogen-activated protein kinase 10 (P53779 whole entry, the tested form may be a part): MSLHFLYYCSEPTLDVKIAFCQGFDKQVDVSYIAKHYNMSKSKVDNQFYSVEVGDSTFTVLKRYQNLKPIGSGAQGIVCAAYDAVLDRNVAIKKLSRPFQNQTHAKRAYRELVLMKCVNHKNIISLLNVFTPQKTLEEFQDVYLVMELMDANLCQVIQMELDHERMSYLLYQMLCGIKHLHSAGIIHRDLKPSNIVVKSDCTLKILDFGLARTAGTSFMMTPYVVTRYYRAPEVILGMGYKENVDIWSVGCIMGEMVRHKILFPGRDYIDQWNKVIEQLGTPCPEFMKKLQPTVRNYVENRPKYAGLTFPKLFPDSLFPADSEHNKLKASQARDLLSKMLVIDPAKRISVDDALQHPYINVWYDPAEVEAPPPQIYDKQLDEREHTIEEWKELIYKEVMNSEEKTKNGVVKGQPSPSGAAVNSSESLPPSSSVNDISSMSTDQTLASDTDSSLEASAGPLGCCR

With CCOC(=O)C1CCCN(S(=O)(=O)c2ccc(S(=O)(=O)N3CCCC3)cc2)C1 (configuration not stated) the AC50 [1] was 2.94 µM (active), the AC50 [2] was 2.1 µM (active) and the AC50 [3] was 0.821 µM (active).
For COc1ccc(-c2ccc(-c3nnn(CC(C)=O)n3)cc2)cc1, the EC50 [4] was 0.364 µM (active), the EC50 [5] was < 0.1 µM (inconclusive) and the EC50 [6] was 0.257 µM (active). For the same compound, the EC50 [7] was 0.521 µM (active).
For Cc1occc1C(=O)N=Nc1c(O)n(C)c2ccccc12, the EC50 [5] was 0.526 µM (active), the EC50 [8] was > 67.5 µM (inactive) and the EC50 [9] was > 67.5 µM (inactive).
With O=C(O)c1ccc(N2C(=O)c3cccc4c(C(=O)O)ccc(c34)C2=O)cc1 the IC50 [10] was 3.53 µM (active), the IC50 [11] was 98.9 µM (active) and the AC50 [12] was 7.17 µM (active).
In the case of O=C(CCn1cnc2ccccc2c1=O)Nc1ccc(S(=O)(=O)N2CCCC2)cc1, the IC50 [13] is reported as 38.2 µM (not active).
For COc1ccc(C(=N)NOC(=O)c2cccs2)cc1, the EC50 [14] was > 67.6 µM (inactive) and the IC50 [15] was > 67.6 µM (inactive).
In the case of Cc1ccc2c(CN3CCN(CCO)CC3)cc(=O)oc2c1C, the EC50 [16] is reported as > 60 µM (not active), the EC50 [17] is reported as < 0.1 µM (active) and the EC50 [18] is reported as 0.019 µM (active).
In the case of CCc1ccccc1NC(=O)COC(=O)c1c(C)nsc1NC, the AC50 [1] is reported as 9.08 µM (active), the AC50 [2] is reported as 2.76 µM (active) and the AC50 [3] is reported as 2.48 µM (active). The AC50 [19] was 64.7 µM (active) and the AC50 [20] was 133 µM (active).
In the case of Cn1nc(-c2ccc(Cl)cc2)c2cc(C(=O)N3CCN(c4ccccc4)CC3)sc21, the AC50 [21] is reported as > 52 µM (inactive).
For CC(C)(C)NC(=O)NC(=O)COc1ccc(Br)cc1Br, the EC50 [8] was > 67.5 µM (inactive) and the EC50 [9] was > 67.5 µM (inactive).
